Literature values, collected in patent US20090214598A1, “Monovalent and polyvalent synthetic polysaccharide antigens for immunological intervention in disease” (Eli Lilly and Company, priority 2005, published 2009).

Conditions: literature reports (U.S. Pat. No. 4,395,399; Chedid 1983)

CC(=O)N[C@H]1C(O)O[C@H](CO)[C@@H](O)[C@@H]1O[C@H](C)C(=O)N[C@@H](C)C(=O)N[C@H](CCC(=O)O)C(N)=O (mixture of isomers) [MDP, muramyl dipeptide]
inflammatory response as reported: inflammatory in nature
